Source: patent US5958938A, “Bis-pyrido[4,3-b]carbazole compounds” (Adir et Compagnie, priority 1997, dated 1999)
Read-outs that look alike come from different tables or passages of the source.

What was measured:
murine leukaemia, L 1210 = test: Cytotoxicity, Microculture Tetrazolium Assay, L 1210; type: cell-based; conditions: Mus musculus, L1210, 48 h, read-out: IC50 (cytotoxicity)
From the text: (§1) Three cell lines were used:
(§2) The cells are distributed on microplates and exposed to the cytotoxic compounds.

P 388 (murine leukaemia) = test: In vivo anti-tumor activity, P 388 i.p.; parameters: species or system female BDF1 mice; conditions: for Long-term survivors/total no. of mice: survivors at 60 days
Description: Line P 388 (murine leukaemia) is supplied by The National Cancer Institute (Frederick, USA). The tumor cells (10^6 cells) are inoculated on day 0 into the peritoneal cavity of female BDF1 mice (Iffa-Credo, France) weighing from 18 to 20 g (groups of 6 or 7 animals).
The products are administered intravenously on day 1 or on days 1, 5 and 9 at the doses indicated.
The anti-tumor activity is expressed as % T/C: [formula]
The animals surviving at 60 days (long-term survivors) are indicated.

B 16 (murine melanoma) = test: In vivo anti-tumor activity, B 16 i.p.; parameters: species or system BDF1 mouse; conditions: for % T/C / Long-term survivors/total no. of mice: D1-9, i.p.; for Long-term survivors/total no. of mice: survivors at 90 days
Description: Line B 16 (murine melanoma) is supplied by The National Cancer Institute (Frederick, USA). The tumor is maintained by successive subcutaneous grafts of tumor fragments. On day 0, the tumors are broken up and homogenised in 0.9% NaCl (1 g, of tumor in 10 ml) and 0.5 ml of the homogenate is injected into the peritoneal cavity of each BDF1 mouse. The products are administered intraperitoneally at the doses indicated once a day for 9 days (D1-9).
The anti-tumor activity is expressed as % T/C, as defined above. The animals surviving at 90 days (long-term survivors) are indicated.

[1] = system: human pulmonary carcinoma, A 549; test: Cytotoxicity, Microculture Tetrazolium Assay, A 549; type: cell-based; conditions: for IC50: Homo sapiens, A549, 96 h, read-out: IC50 (cytotoxicity)
From the text: as §1, §2

murine melanoma, B 16 = test: Cytotoxicity, Microculture Tetrazolium Assay, B 16; type: cell-based; conditions: for IC50: Mus musculus, read-out: IC50 (cytotoxicity)
From the text: as §1, §2

[2] = D1,5,9, i.v., optimum dose 10 mg/kg
[3] = D1, i.v., optimum dose 10 mg/kg
[4] = B16, 96 h, B 16, 4 days incubation
[5] = D1,5,9, i.v., optimum dose 80 mg/kg
[6] = D1, i.v., optimum dose 80 mg/kg

Cc1c2c(C(=O)NCCN(C)C)nccc2c(C)c2c1c1cc(OC(=O)CCCCC(=O)Oc3ccc4c(c3)c3c(C)c5c(C(=O)NCCN(C)C)nccc5c(C)c3n4C)ccc1n2C [Example 1, bis[1-(2-dimethylaminoethylcarbamoyl)-5,6, 11-trimethyl-6H-pyrido[4,3-b]carbazol-9-yl] ester of hexanedloic acid]
IC50 (murine leukaemia, L 1210; L 1210, 2 days incubation): 73.5 nM
% T/C (P 388 (murine leukaemia); [2]): > 582%
Long-term survivors/total no. of mice (P 388 (murine leukaemia); [2]): 3/6
% T/C (P 388 (murine leukaemia); [3]): 252%
Long-term survivors/total no. of mice (P 388 (murine leukaemia); [3]): 1/6
Anti-tumor activity compared with reference product A (P 388 (murine leukaemia); leukaemia P 388 model, in words): more potent than, and as active as, reference product A
% T/C (B 16 (murine melanoma); optimum dose 5 mg/kg): 429%
Long-term survivors/total no. of mice (B 16 (murine melanoma); optimum dose 5 mg/kg): 3/7
Long-term survivors (B 16 (murine melanoma); melanoma B 16 model, at the optimum dose): 3 long-term survivors
Anti-tumor activity (B 16 (murine melanoma); melanoma B 16 model, in words): very active
Cytotoxicity compared with reference products A and B ([1]; A 549, in words): more cytotoxic than reference products A and B
Cytotoxicity compared with line L 1210 ([1]; A 549 versus L 1210, in words): greater for lines B 16 and A 549 than for line L 1210
IC50 ([1]; A 549, 4 days incubation): 17.6 nM
Cytotoxicity compared with reference products A and B (murine melanoma, B 16; B 16, in words): more cytotoxic than reference products A and B
Cytotoxicity compared with line L 1210 (murine melanoma, B 16; B 16 versus L 1210, in words): greater for lines B 16 and A 549 than for line L 1210
IC50 (murine melanoma, B 16; [4]): 3 nM

Cc1c2ccnc(C(=O)NCCN(C)C)c2cc2c3cc(O)ccc3n(C)c12 [Reference A, 1-(N,N-dimethylaminoethylaminocarbamoyl)-5,6-diiethyl-9-hydroxy-6H-pyrido-[4,3-b]carbazole, reference compound]
IC50 (murine leukaemia, L 1210; L 1210, 2 days incubation): 7.8 nM
% T/C (P 388 (murine leukaemia); [5]): 320%
Long-term survivors/total no. of mice (P 388 (murine leukaemia); [5]): 2/6
% T/C (P 388 (murine leukaemia); [6]): 221%
Long-term survivors/total no. of mice (P 388 (murine leukaemia); [6]): 0/6
% T/C (B 16 (murine melanoma); optimum dose 10 mg/kg): 190%
Long-term survivors/total no. of mice (B 16 (murine melanoma); optimum dose 10 mg/kg): 0/7
Long-term survivors (B 16 (murine melanoma); melanoma B 16 model, in words): none
IC50 ([1]; A 549, 4 days incubation): 30.5 nM
IC50 (murine melanoma, B 16; [4]): 5.1 nM

COc1cccc2c1C(=O)c1c(O)c3c(c(O)c1C2=O)C[C@@](O)(C(=O)CO)C[C@@H]3O[C@H]1C[C@H](N)[C@H](O)[C@H](C)O1 [Reference B, adriamycin, reference compound]
IC50 (murine leukaemia, L 1210): 24.3 nM
IC50 [1]: 39.4 nM
IC50 (murine melanoma, B 16; 96 h): 6.8 nM
